According to patent US10035791B2, “Bicyclic compound and pharmaceutical composition thereof for treating stroke and use thereof” (China Medical University, priority 2016, dated 2018):

How the values were obtained:
[1] = system: HIF-1α; experiment: HIF-1α expressions of the NSCs, Western blot; format: cell-based, mice
Method: To prepare the NSCs, after removal of meninges, subventricular zones (SVZ) of lateral ventricles from adult mice brain (4 week-of-age) are aseptically isolated and dissociated as previously described (J Cell Sci 2006; 119, 4467-4474). All steps are operated under sterile conditions. Then, neurosphere culture are prepared in neurobasal (NB) medium (Gibco BRL) supplemented with 2% of B27 (Gibco BRL), 2 mM of L-glutamine (PAN Biotech), 100 U/ml of penicillin/0.1 […] of streptomycin (Gibco BRL). For maintenance and expansion of the cultures, the NB/B27 is further supplemented with 2 μg/mL of heparin (Sigma), 20 ng/mL of FGF-2 (R&D Systems) and 20 ng/mL of EGF (R&D Systems). Neurosphere cultures are maintained at 37° C. in a humidified incubator with 5% CO2. For clonal/low density cultures, primary neurospheres grown at high density are dissociated into a single cell suspension and reseeded into 96-well plates at 100 cells per ml of media and the number of newly formed neurospheres is counted after 7 days. In addition, the Bmi-1 expressions, SOX2 expressions, Nestin expressions, Musashi-1 expressions, BrdU expressions and ki-67 expressions of the newly formed neurospheres are determined by the immunofluorescence staining. […]
The NSCs are exposed to the various dosages of the Compound 1 (0.1 μM, 1 μM, 10 μM and 100 μM) and cultured in the neurosphere culture. The HIF-1α expressions and the Bmi-1 expressions of the NSCs are detected by the Western blot analysis. […]
In another example, the HIF-1α expressions of the NSCs are inhibited and then 1 μM of the Compound 1 is added into the medium of the NSCs. The HIF-1α expression and the Bmi-1 expressions of the NSCs are detected by the Western blot analysis. […]
In still another example, the NSCs are exposed to 1 μM of the Compound 1 and further cultured for various lengths of time (0.5 hour, 1 hour, 4 hours, 8 hours, 16 hours and 24 hours). The HIF-1α expressions and the Bmi-1 expressions of the NSCs are detected by the Western blot analysis. […]

[2] = system: ischemic rats; experiment: Volume of the infarction after cerebral ischemia, magnetic resonance imaging (MRI); format: in vivo, Sprague-Dawley (SD) rats
Description: The ischemic rats are induced by an ischemia-reperfusion model to simulate transient focal cerebral ischemia in rats. Test animals are male Sprague-Dawley (SD) rats weighing 250-300 g. The rats are anesthetized with chloral hydrate (0.4 g/kg IP) and subjected to cerebral ischemia. The ischemia-reperfusion model is induced by ligations of bilateral common carotid arteries (CCAs) and a right middle cerebral artery (MCA). The bilateral CCAs are clamped with non-traumatic arterial clips, and the right MCA is ligated with an 10-0 nylon suture. After 90 minutes ischemia, the suture on the MCA and the arterial clips on CCAs are removed to allow reperfusion. Core body temperature is monitored with a thermistor probe (Hewlett-Packard Model 21090A probe, Hewlett-Packard Company, Andover, Mass.), and maintained at 37° C. with a heating pad during anesthesia. After recovery from anesthesia, rat body temperature is maintained at 37° C. with a heat lamp.
Further, the ischemic rats are assigned into 5 groups, 4 test groups and 1 control group. The ischemic rats of the test groups are injected with 1 mg/kg of the Compound 1, 30 mg/kg of the genipin, 1 mg/kg of the Compound 1 and 100 mg/kg of 2-ME2, and 1 mg/kg of the Compound 1 and the LV-Bmi-1-sh, respectively. The ischemic rats of the control group are injected with the vehicle. At 7 days after the injection, the ischemic rats of the different groups are anesthetized, and the volume of the infarction thereof is assessed by a magnetic resonance imaging (MRI).

[3] = 1 mg/kg, 7 days after the injection, FIGS. 18A, 18B

Row | SMILES | enhancement of the HIF-1α expressions induced by the Compound 1 in NSCs ([1]; 1 μM 2-ME2 for 16 hours, then 1 μM Compound 1, FIG. 10B) | Compound-1-induced reduction of the volume of the infarction (MRI) ([2]; 100 mg/kg 2-ME2 plus 1 mg/kg Compound 1, 7 days) | exposure time at which the NSCs express the most HIF-1α ([1]; 1 μM, 0.5 to 24 hours tested, FIG. 10C) [h] | HIF-1α expressions of the NSCs ([1]; 0.1, 1, 10, 100 μM, normoxia (21% O2), in particular 1 μM, FIG. 10A) | effect on the reduction of the infarction area, compared with genipin ([2]; 1 mg/kg Compound 1 vs 30 mg/kg genipin, 7 days) | area of the largest infarction (MRI) [2, 3] | volume of the infarction (MRI) [2, 3]
1 | COc1cc2c(cc1O)CC[C@@H]1[C@@H]2CC[C@]2(C)[C@@H](O)CC[C@@H]12 [Compound 2-ME2, 2-Methoxyestradiol, reference compound] | abolished | abolishes |  |  |  |  | 
2 | COC(=O)C1=CO[C@@H](O)[C@@H]2C(COC(=O)[C@@H](N)Cc3ccccc3)=CC[C@H]12 [Compound 1] |  |  | 0.5 | increased | better than that of the genipin | significantly reduced | significantly reduced
